Results from the NIST ThermoML archive (doi:10.1016/j.jct.2012.08.019).

How the values were obtained:
[1] = xn = mol fraction of the nth substance listed; conditions: Liquid; for mass density: Vibrating tube method; for viscosity: Moving piston method
[2] = 323.2 K, Liquid, Vibrating tube method

CCCCCCCCCCCCCC [tetradecane] + CCCCCCCCCC
mass density [kg/m3], [1], 323.2 K
Conditions	x2 = 0	x2 = 0.25	x2 = 0.5	x2 = 0.75
100 kPa	741.3	734.3	726.5	717.2
1000 kPa	742.1	735.1	727.4	718.1
2000 kPa	742.9	735.9	728.2	719
3000 kPa	743.7	736.7	729.1	719.8
4000 kPa	744.4	737.5	729.8	720.7
5000 kPa	745.2	738.3	730.7	721.6
6000 kPa	746	739.1	731.5	722.5
7000 kPa	746.7	739.9	732.4	723.2
8000 kPa	747.5	740.7	733.2	724
9000 kPa	748.2	741.5	734	724.9
10000 kPa	749	742.2	734.8	725.8

CCCCCCCCCC [decane] + CCCCCCCCCCCCCC
[1], 323.2 K, x1 = 1
Conditions	mass density [kg/m3]
100 kPa	707
1000 kPa	707.9
2000 kPa	708.8
3000 kPa	709.7
4000 kPa	710.6
5000 kPa	711.5
6000 kPa	712.4
7000 kPa	713.3
8000 kPa	714.1
9000 kPa	715
10000 kPa	715.9

CCCCCCCCCC [decane] + O=C=O
[1]
Conditions	mass density, 323.3 K [kg/m3]	viscosity, 323.2 K [mPa·s]
1020 kPa, x2 = 0.094	711	0.56
2080 kPa, x2 = 0.19	716	0.46
2970 kPa, x2 = 0.263	720	0.42
3940 kPa, x2 = 0.353	724	0.38
4910 kPa, x2 = 0.429	729	0.33
5960 kPa, x2 = 0.513	735	0.28

CCCCCCCCCCCCCC [tetradecane] + O=C=O
[1]
Conditions	mass density, 323.3 K [kg/m3]	viscosity, 323.2 K [mPa·s]
980 kPa, x2 = 0.097	744	1.18
2060 kPa, x2 = 0.196	748	1.08
3000 kPa, x2 = 0.279	751	0.96
4030 kPa, x2 = 0.358	755	0.79
4960 kPa, x2 = 0.429	758	0.67
6000 kPa, x2 = 0.496	762	0.56

CCCCCCCCCC [decane]
[2]
Conditions	mass density [kg/m3]
100 kPa	707
1000 kPa	707.9
2000 kPa	708.8
3000 kPa	709.7
4000 kPa	710.6
5000 kPa	711.5
6000 kPa	712.4
7000 kPa	713.3
8000 kPa	714.1
9000 kPa	715
10000 kPa	715.9

CCCCCCCCCCCCCC [tetradecane]
[2]
Conditions	mass density [kg/m3]
100 kPa	741.3
1000 kPa	742.1
2000 kPa	742.9
3000 kPa	743.7
4000 kPa	744.4
5000 kPa	745.2
6000 kPa	746
7000 kPa	746.7
8000 kPa	747.5
9000 kPa	748.2
10000 kPa	749
